Assay results reported in ChEMBL document CHEMBL1201862, “PubChem BioAssay data set” (2004).
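How tested: cells in 96-well plates exposed to compound for 48 hours at five concentrations. GI50 = concentration required for 50% inhibition of growth.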 Calls of active or inactive are those of the source. No stated cut-off is given here; in the data, active = GI50 up to about 1.1 µM and inactive = higher.

What was measured:
Assay in all cases: inhibition of tumour cell growth, NCI panel, 48 h
[1] = system: SW-620
[2] = system: SK-OV-3
[3] = system: M14
[4] = system: U-251
[5] = system: OVCAR-4
[6] = system: MOLT-4
[7] = system: IGROV-1
[8] = system: SF-295
[9] = system: NCI-H522
[10] = system: OVCAR-8
[11] = system: ACHN
[12] = system: SK-MEL-5
[13] = system: A549
[14] = system: SNB-75
[15] = system: NCI-H460
[16] = system: SF-268
[17] = system: HCT-116
[18] = system: NCI-H23
[19] = system: HOP-62
[20] = system: SN12C

Measured: GI50

CC(C)(C)C(=O)OCC1OC(N=[N+]=[N-])C(OC(=O)C(C)(C)C)C(OC(=O)C(C)(C)C)C1OC(=O)C(C)(C)C (stereo not given)
inactive: [1] > 100 µM | [2] > 100 µM | [3] > 100 µM | [4] > 100 µM | [5] > 100 µM | [6] > 100 µM | [7] > 100 µM | [8] > 100 µM | [9] > 100 µM | [10] > 100 µM | [11] > 100 µM | [12] > 100 µM | [13] > 100 µM | [14] > 100 µM | [15] > 100 µM | [16] > 100 µM | [17] > 100 µM | [18] > 100 µM | [19] > 100 µM | [20] > 100 µM

Nc1nnc(CCC(=O)Nc2cc(Cl)ccc2Cl)n1N
inactive: [1] > 100 µM | [2] > 100 µM | [3] > 100 µM | [4] > 100 µM | [5] > 100 µM | [6] > 100 µM | [7] > 100 µM | [8] > 100 µM | [9] > 100 µM | [10] > 100 µM | [11] > 100 µM | [12] > 100 µM | [13] > 100 µM | [14] > 100 µM | [15] > 100 µM | [16] > 100 µM | [17] > 100 µM | [18] > 100 µM | [19] > 100 µM | [20] > 100 µM

CC(=O)/N=C1/N(/C=C2\C(=O)Oc3ccccc3C2=O)C(=O)/C(=C/c2ccc(NC(C)=O)cc2)N1C
inactive: [1] > 100 µM | [2] > 100 µM | [3] > 100 µM | [4] > 100 µM | [5] > 100 µM | [6] > 100 µM | [7] > 100 µM | [8] > 100 µM | [9] 47.9 µM | [10] > 100 µM | [11] > 100 µM | [12] > 100 µM | [13] > 100 µM | [14] 84.9 µM | [15] > 100 µM | [16] > 100 µM | [17] > 100 µM | [18] > 100 µM | [19] > 100 µM | [20] > 100 µM

CCOC(=O)C(=O)Nc1cccc(C)c1C
inactive: [1] > 100 µM | [2] > 100 µM | [3] > 100 µM | [4] > 100 µM | [5] > 100 µM | [6] > 100 µM | [7] > 100 µM | [8] > 100 µM | [9] > 100 µM | [10] > 100 µM | [11] > 100 µM | [12] > 100 µM | [13] > 100 µM | [14] > 100 µM | [15] > 100 µM | [16] > 100 µM | [17] > 100 µM | [18] > 100 µM | [19] > 100 µM | [20] > 100 µM

CCCCNC1=C2C(=O)NN=C2CO1
inactive: [1] > 100 µM | [2] > 100 µM | [3] > 100 µM | [4] > 100 µM | [5] > 100 µM | [6] > 100 µM | [7] > 100 µM | [8] > 100 µM | [9] > 100 µM | [10] > 100 µM | [11] > 100 µM | [12] > 100 µM | [13] > 100 µM | [14] > 100 µM | [15] > 100 µM | [16] > 100 µM | [17] > 100 µM | [18] > 100 µM | [19] > 100 µM | [20] > 100 µM
